Patent US10647713B2 (Nimbus Lakshmi, Inc., priority 2016, dated 2020)

Molecular target: human TYK2 (JH2domain-pseudokinase) (Homo sapiens (Human), UniProt P29597)
Experiment: TYK2 JH2 Domain Binding Assay (KINOMEscan, DiscoveRx)
Conditions: 11-point dilution, duplicate
In short: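 Kd from duplicate 11-point 3-fold dilutions starting at 30,000 nM, fitted by Hill equation with slope fixed at −1. Compounds (final 0.9% DMSO) displace DNA-tagged HEK293-expressed TYK2 JH2 fusion (<0.1 nM) from ligand-coated beads over 1 h at room temperature; eluted kinase read by qPCR.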

Sequence of human TYK2 (JH2domain-pseudokinase) (P29597 556-888): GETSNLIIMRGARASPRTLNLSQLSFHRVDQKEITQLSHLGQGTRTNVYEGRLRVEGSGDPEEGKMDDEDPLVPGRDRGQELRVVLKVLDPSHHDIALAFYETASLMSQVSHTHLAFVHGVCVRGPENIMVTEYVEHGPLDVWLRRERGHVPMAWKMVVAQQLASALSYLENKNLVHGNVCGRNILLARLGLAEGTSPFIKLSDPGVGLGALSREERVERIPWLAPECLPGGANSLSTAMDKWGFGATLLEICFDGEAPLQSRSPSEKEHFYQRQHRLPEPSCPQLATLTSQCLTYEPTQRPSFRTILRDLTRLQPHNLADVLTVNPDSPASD

Row | SMILES | Kd
1 | CS(=O)(=O)c1ccccc1Nc1cc(Nc2ccc3c(n2)C(F)(F)CC3)nc2[nH]c(C(F)F)nc12 [I-617, N5-(7,7-difluoro-6,7-dihydro-5H-cyclopenta[b]pyridin-2-yl)-2-(difluoromethyl)-N7-(2-(methylsulfonyl)phenyl)-3H-imidazo[4,5-b]pyridine-5,7-diamine] | 0.1 to 0.5 nM
2 | Cc1nc2c(Nc3ccccc3S(C)(=O)=O)cc(Nc3ccc4c(n3)C(F)(F)CC4)nc2[nH]1 [I-618, N5-(7,7-difluoro-6,7-dihydro-5H-cyclopenta[b]pyridin-2-yl)-2-methyl-N7-(2-(methylsulfonyl)phenyl)-3H-imidazo[4,5-b]pyridine-5,7-diamine] | < 0.1 nM
3 | COCCOc1ccc(Nc2cc(Nc3ccccc3S(C)(=O)=O)c3nc(C(F)F)[nH]c3n2)nc1C#N [I-619, 6-((2-(difluoromethyl)-7-((2-(methylsulfonyl)phenyl)amino)-3H-imidazo[4,5-b]pyridin-5-yl)amino)-3-(2-methoxyethoxy)picolinonitrile] | < 0.1 nM
4 | COCCOc1ccc(Nc2cc(Nc3ccccc3S(C)(=O)=O)c3nc(C)[nH]c3n2)nc1C#N [I-620, 3-(2-methoxyethoxy)-6-((2-methyl-7-((2-(methylsulfonyl)phenyl)amino)-3H-imidazo[4,5-b]pyridin-5-yl)amino)picolinonitrile] | < 0.1 nM
5 | COCCOc1ccc(Nc2cc(Nc3ccc(F)cc3S(C)(=O)=O)c3nc(C(F)F)[nH]c3n2)nc1C#N [I-621, 6-((2-(difluoromethyl)-7-((4-fluoro-2-(methylsulfonyl)phenyl)amino)-3H-imidazo[4,5-b]pyridin-5-yl)amino)-3-(2-methoxyethoxy)picolinonitrile] | 0.1 to 0.5 nM
6 | COCCOc1ccc(Nc2cc(Nc3ccc(F)cc3S(C)(=O)=O)c3nc(C)[nH]c3n2)nc1C#N [I-622, 6-((7-((4-fluoro-2-(methylsulfonyl)phenyl)amino)-2-methyl-3H-imidazo[4,5-b]pyridin-5-yl)amino)-3-(2-methoxyethoxy)picolinonitrile] | < 0.1 nM
7 | CS(=O)(=O)c1ccccc1Nc1cc(Nc2ccc(OC3CCOCC3)c(C#N)n2)nc2[nH]c(C(F)F)nc12 [I-623, 6-((2-(difluoromethyl)-7-((2-(methylsulfonyl)phenyl)amino)-3H-imidazo[4,5-b]pyridin-5-yl)amino)-3-((tetrahydro-2H-pyran-4-yl)oxy)picolinonitrile] | < 0.1 nM
8 | Cc1nc2c(Nc3ccccc3S(C)(=O)=O)cc(Nc3ccc(OC4CCOCC4)c(C#N)n3)nc2[nH]1 [I-624, 6-((2-methyl-7-((2-(methylsulfonyl)phenyl)amino)-3H-imidazo[4,5-b]pyridin-5-yl)amino)-3-((tetrahydro-2H-pyran-4-yl)oxy)picolinonitrile] | < 0.1 nM
9 | CS(=O)(=O)c1cc(F)ccc1Nc1cc(Nc2ccc(OC3CCOCC3)c(C#N)n2)nc2[nH]c(C(F)F)nc12 [I-625, 6-((2-(difluoromethyl)-7-((4-fluoro-2-(methylsulfonyl)phenyl)amino)-3H-imidazo[4,5-b]pyridin-5-yl)amino)-3-((tetrahydro-2H-pyran-4-yl)oxy)picolinonitrile] | 0.1 to 0.5 nM
10 | Cc1nc2c(Nc3ccc(F)cc3S(C)(=O)=O)cc(Nc3ccc(OC4CCOCC4)c(C#N)n3)nc2[nH]1 [I-626, 6-((7-((4-fluoro-2-(methylsulfonyl)phenyl)amino)-2-methyl-3H-imidazo[4,5-b]pyridin-5-yl)amino)-3-((tetrahydro-2H-pyran-4-yl)oxy)picolinonitrile] | < 0.1 nM
11 | COc1c(Nc2cc(Nc3cccc(C(F)(F)F)n3)nc3[nH]c(C)nc23)cccc1-c1ncnn1C [I-627, N7-(2-methoxy-3-(1-methyl-1H-1,2,4-triazol-5-yl)phenyl)-2-methyl-N5-(6-(trifluoromethyl)pyridin-2-yl)-3H-imidazo[4,5-b]pyridine-5,7-diamine] | 1 to 10 nM
12 | COc1c(Nc2cc(Nc3ccc4c(n3)C(F)(F)CC4)nc3[nH]c(C)nc23)cccc1-c1ncnn1C [I-628, N5-(7,7-difluoro-6,7-dihydro-5H-cyclopenta[b]pyridin-2-yl)-N7-(2-methoxy-3-(1-methyl-1H-1,2,4-triazol-5-yl)phenyl)-2-methyl-3H-imidazo[4,5-b]pyridine-5,7-diamine] | 0.5 to 1 nM
13 | COc1c(Nc2cc(Nc3ccc4c(n3)C(F)(F)CC4)nc3[nH]c(C)nc23)cccc1-c1cnn(C)n1 [I-629, N5-(7,7-difluoro-6,7-dihydro-5H-cyclopenta[b]pyridin-2-yl)-N7-(2-methoxy-3-(2-methyl-2H-1,2,3-triazol-4-yl)phenyl)-2-methyl-3H-imidazo[4,5-b]pyridine-5,7-diamine] | 0.5 to 1 nM
14 | C#Cc1cccc(Nc2cc(Nc3ccc(F)cc3S(C)(=O)=O)c3nc(C)[nH]c3n2)n1 [I-630, N5-(6-ethynylpyridin-2-yl)-N7-(4-fluoro-2-(methylsulfonyl)phenyl)-2-methyl-3H-imidazo[4,5-b]pyridine-5,7-diamine] | < 0.1 nM
15 | CN=S(C)(=O)c1cc(-c2cnn(C)c2C)ccc1Nc1cc(NC(=O)C2CC2)nc2[nH]c(C(F)F)nc12 (stereo not shown) [I-631, N-(2-(difluoromethyl)-7-((4-(1,5-dimethyl-1H-pyrazol-4-yl)-2-(N,S-dimethylsulfonimidoyl)phenyl)amino)-3H-imidazo[4,5-b]pyridin-5-yl)cyclopropanecarboxamide] | < 0.1 nM
16 | CN=S(C)(=O)c1cc(-c2ccn(C)n2)ccc1Nc1cc(NC(=O)C2CC2)nc2[nH]c(C(F)F)nc12 (stereo not shown) [I-632] | 0.1 to 0.5 nM
17 | CS(=O)(=O)c1cc(F)ccc1Nc1cc(Nc2cc3c(nn2)CCC3)nc2[nH]c(C(F)F)nc12 [I-633] | 0.1 to 0.5 nM

Row | SMILES | Kd
18 | CN=S(C)(=O)c1cc(-c2nc(COC)c(C)s2)ccc1Nc1cc(NC(=O)C2CC2)nc2[nH]c(C(F)F)nc12 (stereo not shown) [I-634] | 0.1 to 0.5 nM
19 | COCc1ccc(Nc2cc(Nc3ccc(F)cc3S(C)(=O)=O)c3nc(C(F)F)[nH]c3n2)nn1 [I-635] | 0.1 to 0.5 nM
20 | COCc1ccc(Nc2cc(Nc3ccc(F)cc3S(C)(=O)=O)c3nc(C)[nH]c3n2)nn1 [I-636] | 0.1 to 0.5 nM
21 | CN=[S@@](C)(=O)c1cc(-c2cnn(C)c2C)ccc1Nc1cc(NC(=O)C2CC2)nc2[nH]c(C(F)F)nc12 [I-637] | < 0.1 nM
22 | CN=[S@](C)(=O)c1cc(-c2cnn(C)c2C)ccc1Nc1cc(NC(=O)C2CC2)nc2[nH]c(C(F)F)nc12 [I-638] | 0.1 to 0.5 nM
23 | Cc1nc2c(Nc3ccc(F)cc3S(C)(=O)=O)cc(Nc3cc4c(nn3)CCC4)nc2[nH]1 [I-639] | < 0.1 nM
24 | CN=S(C)(=O)c1cc(-c2ccn(C)n2)ccc1Nc1cc(NC(=O)C2CC2)nc2[nH]c(C)nc12 (stereo not shown) [I-640] | 0.1 to 0.5 nM
25 | CN=S(C)(=O)c1cc(-c2nn(C)cc2C)ccc1Nc1cc(NC(=O)C2CC2)nc2[nH]c(C(F)F)nc12 (stereo not shown) [I-641] | < 0.1 nM
26 | Cc1cc(Nc2cc(Nc3ccc(C4CCC(C)(C)CO4)cc3S(C)(=O)=O)c3nc(C)[nH]c3n2)nc(C)n1 (stereo not shown) [I-642] | < 0.1 nM
27 | CS(=O)(=O)c1cc(F)ccc1Nc1cc(Nc2ccc3c(n2)CCOC3)nc2[nH]c(C(F)F)nc12 [I-643] | 0.1 to 0.5 nM
28 | Cc1nc2c(Nc3ccc(F)cc3S(C)(=O)=O)cc(Nc3ccc4c(n3)CCOC4)nc2[nH]1 [I-644] | 0.1 to 0.5 nM
29 | COc1c(Nc2cc(Nc3ccc4c(n3)CCOC4)nc3[nH]c(C(F)F)nc23)cccc1-c1ncnn1C [I-645] | 1 to 10 nM
30 | COc1c(Nc2cc(Nc3ccc4c(n3)CCOC4)nc3[nH]c(C(F)F)nc23)cccc1-c1cnn(C)n1 [I-646] | 0.5 to 1 nM
31 | COc1c(Nc2cc(Nc3cc4c(nn3)CCC4)nc3[nH]c(C(F)F)nc23)cccc1-c1ncnn1C [I-647] | 0.5 to 1 nM
32 | COc1c(Nc2cc(Nc3cc4c(nn3)CCC4)nc3[nH]c(C(F)F)nc23)cccc1-c1cnn(C)n1 [I-648] | 0.1 to 0.5 nM
33 | CN=[S@@](C)(=O)c1cc(-c2nc(COC)c(C)s2)ccc1Nc1cc(NC(=O)C2CC2)nc2[nH]c(C(F)F)nc12 [I-649] | 1 to 10 nM
34 | CN=[S@](C)(=O)c1cc(-c2nc(COC)c(C)s2)ccc1Nc1cc(NC(=O)C2CC2)nc2[nH]c(C(F)F)nc12 [I-650] | 0.1 to 0.5 nM
